# Source: ChEMBL document CHEMBL1138490, “Gamma-aminobutyric acid amides of nortriptyline and fluoxetine display improved pain suppressing activity” (2009)
# The source made the active and inactive calls. The calls are words filed in the database; no cut-off is given here.
# Legend:
# Mus musculus [1] = assay: Antinociceptive activity in BALB/c mouse assessed as […] at 10 mg/kg, po after 240 mins by hot plate method; type: functional, organism-based; parameters: dose 10 mg/kg
# Mus musculus [2] = assay: Antiinflammatory activity against formalin-induced BALB/c mouse skin assessed as reduction in TNFalpha level at to 0.5 mg/kg, po; type: functional, organism-based; parameters: dose 0.5 mg/kg
# Rattus norvegicus [3] = assay: Antiinflammatory activity against gamma carrageenan-induced paw edema in Wistar rat assessed as paw volume at 50 mg/kg, ip administered 2 to 4 hrs before carrageenan challenge relative to control; type: functional, organism-based; parameters: dose 50 mg/kg
# Rattus norvegicus [4] = assay: Antiinflammatory activity against gamma carrageenan-induced paw edema in Wistar rat assessed as reduction in paw volume at 50 mg/kg, ip administered 2 hrs before carrageenan challenge measured after 24 hrs relative to control; type: functional, organism-based; parameters: dose 50 mg/kg
# Mus musculus [5] = assay: Antiinflammatory activity against formalin-induced BALB/c mouse skin assessed as reduction in TNFalpha level at 50 mg/kg, ip; type: functional, organism-based; parameters: dose 50 mg/kg
# Rattus norvegicus [6] = assay: Antiinflammatory activity against gamma carrageenan-induced paw edema in Wistar rat assessed as reduction in paw volume at 50 mg/kg, ip administered 2 hrs before carrageenan challenge measured after 4 hrs relative to control; type: functional, organism-based; parameters: dose 50 mg/kg
# Rattus norvegicus [7] = species on record: Rattus norvegicus; assay: Displacement of [3H]GABA from non selective GABA receptor in rat cerebral cortex; type: tissue-based; details: concentration not given here
# Mus musculus [8] = assay: Anxiolytic activity in BALB/c mouse assessed as immobility at equimolar oral dose relative to 5 mg/kg nortriptyline after 90 mins by open-field test (RVb= 458.4+/-41 s); type: functional
# Mus musculus [9] = assay: Anxiolytic activity in BALB/c mouse assessed as distance moved at equimolar oral dose relative to 1 mg/kg nortriptyline after 90 mins by open-field test (RVb= 8485+/-610 cm); type: functional
# Mus musculus [10] = assay: Anxiolytic activity in BALB/c mouse assessed as velocity at equimolar oral dose relative to 1 mg/kg nortriptyline after 90 mins by open-field test (RVb= 7.07+/-0.51 cm/s); type: functional
# Mus musculus [11] = assay: Antinociceptive activity in BALB/c mouse assessed as increase in paw withdrawal latency time at 0.2 mg/kg, po equimolar dose of nortriptyline daily measured after 3 to 5 hrs on day 3 to 12; type: functional, organism-based; parameters: dose 0.2 mg/kg
# Mus musculus [12] = assay: Antinociceptive activity against formalin-induced pain in BALB/c mouse assessed paw licking, biting or shaking at 0.5 mg/kg, po equimolar dose of nortriptyline administered 2 hrs before formalin challenge measured after 25 to 35 mins relative to control; type: functional, organism-based; parameters: dose 0.5 mg/kg
# Mus musculus [13] = assay: Antinociceptive activity in BALB/c mouse assessed as increase in paw withdrawal latency time at 0.2 mg/kg, po daily for 12 days measured after 3 to 5 hrs on day 1; type: functional, organism-based; parameters: dose 0.2 mg/kg
# Mus musculus [14] = assay: Anxiolytic activity in BALB/c mouse assessed as distance moved at equimolar oral dose relative to 5 mg/kg nortriptyline after 90 mins by open-field test (RVb= 8485+/-610 cm); type: functional
# Mus musculus [15] = assay: Antinociceptive activity in BALB/c mouse assessed as increase in paw withdrawal latency time at 0.2 mg/kg, po equimolar dose of nortriptyline daily measured after 3 to 5 hrs on day 1; type: functional, organism-based; parameters: dose 0.2 mg/kg
# Mus musculus [16] = assay: Antinociceptive activity in BALB/c mouse assessed as paw withdrawal latency at 0.4 mg/kg, po after 2 to 4 hrs by hot plate method; type: functional, organism-based; parameters: dose 0.4 mg/kg
# Mus musculus [17] = assay: Anxiolytic activity in BALB/c mouse assessed as velocity at equimolar oral dose relative to 15 mg/kg nortriptyline after 90 mins by open-field test (RVb= 7.07+/-0.51 cm/s); type: functional
# Mus musculus [18] = assay: Anxiolytic activity in BALB/c mouse assessed as velocity at equimolar oral dose relative to 5 mg/kg nortriptyline after 90 mins by open-field test (RVb= 7.07+/-0.51 cm/s); type: functional
# Rattus norvegicus [19] = assay: Antiinflammatory activity against gamma carrageenan-induced paw edema in Wistar rat assessed as reduction in paw volume at 5 mg/kg, po administered 2 hrs before carrageenan challenge measured after 24 hrs relative to control; type: functional, organism-based; parameters: dose 5 mg/kg
# Mus musculus [20] = assay: Antinociceptive activity in BALB/c mouse assessed as decrease in inhibition of paw withdrawal latency at 0.1 mg/kg, po after by hot plate method; type: functional, organism-based; parameters: dose 0.1 mg/kg
# Mus musculus [21] = assay: Antinociceptive activity against formalin-induced pain in BALB/c mouse assessed paw licking, biting or shaking at 0.5 mg/kg, po administered 2 hrs before formalin challenge measured after 0 to 5 mins relative to control; type: functional, organism-based; parameters: dose 0.5 mg/kg
# Rattus norvegicus [22] = assay: Antiinflammatory activity against gamma carrageenan-induced paw edema in Wistar rat assessed as paw volume at 5 mg/kg, po equimolar dose of nortriptyline administered 2 hrs before carrageenan challenge relative to control; type: functional, organism-based; parameters: dose 5 mg/kg
# Rattus norvegicus [23] = species on record: Rattus norvegicus; assay: Displacement of [3H]muscimol from GABAA receptor in rat cerebral cortex; type: tissue-based; details: concentration not given here
# Mus musculus [24] = assay: Antinociceptive activity against formalin-induced pain in BALB/c mouse assessed paw licking, biting or shaking at 5 mg/kg, po equimolar dose of nortriptyline administered 2 hrs before formalin challenge measured after 0 to 5 mins relative to control; type: functional, organism-based; parameters: dose 5 mg/kg
# Mus musculus [25] = assay: Antinociceptive activity in BALB/c mouse assessed as […] at 0.25 mg/kg, po equimolar dose of nortriptyline after 240 mins by hot plate method; type: functional, organism-based; parameters: dose 0.25 mg/kg
# Mus musculus [26] = assay: Antinociceptive activity in BALB/c mouse assessed as […] at 4.5 mg/kg, po after 240 mins by hot plate method; type: functional, organism-based; parameters: dose 4.5 mg/kg
# Mus musculus [27] = assay: Antinociceptive activity in BALB/c mouse assessed as increase in paw withdrawal latency time at 0.2 mg/kg, po equimolar dose of nortriptyline daily measured after 3 to 5 hrs on day 10 to 12; type: functional, organism-based; parameters: dose 0.2 mg/kg
# Mus musculus [28] = assay: Antinociceptive activity against formalin-induced pain in BALB/c mouse assessed paw licking, biting or shaking at 5 mg/kg, po administered 2 hrs before formalin challenge measured after 0 to 5 mins relative to control; type: functional, organism-based; parameters: dose 5 mg/kg
# Mus musculus [29] = assay: Antinociceptive activity against formalin-induced pain in BALB/c mouse assessed paw licking, biting or shaking at 5 mg/kg, po equimolar dose of nortriptyline administered 2 hrs before formalin challenge measured after 25 to 35 mins relative to control; type: functional, organism-based; parameters: dose 5 mg/kg
# Rattus norvegicus [30] = assay: Antiinflammatory activity against gamma carrageenan-induced paw edema in Wistar rat assessed as reduction in paw volume at 5 mg/kg, po administered 2 hrs before carrageenan challenge measured after 4 hrs relative to control; type: functional, organism-based; parameters: dose 5 mg/kg
# Mus musculus [31] = assay: Antinociceptive activity in BALB/c mouse assessed as […] at 0.25 mg/kg, po after 240 mins by hot plate method; type: functional, organism-based; parameters: dose 0.25 mg/kg
# Mus musculus [32] = assay: Antinociceptive activity against formalin-induced pain in BALB/c mouse assessed paw licking, biting or shaking at 5 mg/kg, po administered 2 hrs before formalin challenge measured after 25 to 35 mins relative to control; type: functional, organism-based; parameters: dose 5 mg/kg
# Mus musculus [33] = assay: Antinociceptive activity against formalin-induced pain in BALB/c mouse assessed paw licking, biting or shaking at 0.5 mg/kg, po administered 2 hrs before formalin challenge measured after 25 to 35 mins relative to control; type: functional, organism-based; parameters: dose 0.5 mg/kg
# Mus musculus [34] = assay: Anxiolytic activity in BALB/c mouse assessed as immobility at equimolar oral dose relative to 15 mg/kg nortriptyline after 90 mins by open-field test (RVb= 458.4+/-41 s); type: functional
# Rattus norvegicus [35] = assay: Antiinflammatory activity against gamma carrageenan-induced paw edema in Wistar rat assessed as reduction in paw volume at 5 mg/kg, po equimolar dose of nortriptyline administered 2 hrs before carrageenan challenge measured after 24 hrs relative; type: functional, organism-based; parameters: dose 5 mg/kg
# Mus musculus [36] = assay: Antinociceptive activity in BALB/c mouse assessed as […] at 0.5 mg/kg, po equimolar dose of nortriptyline after 240 mins by hot plate method; type: functional, organism-based; parameters: dose 0.5 mg/kg
# Mus musculus [37] = assay: Antinociceptive activity against formalin-induced pain in BALB/c mouse assessed paw licking, biting or shaking at 0.5 mg/kg, po equimolar dose of nortriptyline administered 2 hrs before formalin challenge measured after 0 to 5 mins relative to control; type: functional, organism-based; parameters: dose 0.5 mg/kg
# Mus musculus [38] = assay: Antinociceptive activity in BALB/c mouse assessed as decrease in inhibition of paw withdrawal latency at 2.39 mg/kg, po after by hot plate method; type: functional, organism-based; parameters: dose 2.39 mg/kg
# Mus musculus [39] = assay: Antinociceptive activity in BALB/c mouse assessed as paw withdrawal latency at 0.4 mg/kg, po equimolar dose of nortriptyline after 2 to 4 hrs by hot plate method; type: functional, organism-based; parameters: dose 0.4 mg/kg
# Mus musculus [40] = assay: Antinociceptive activity in BALB/c mouse assessed as […] at 4.5 mg/kg, po equimolar dose of nortriptyline after 240 mins by hot plate method; type: functional, organism-based; parameters: dose 4.5 mg/kg
# Rattus norvegicus [41] = assay: Antiinflammatory activity against gamma carrageenan-induced paw edema in Wistar rat assessed as reduction in paw volume at 5 mg/kg, po equimolar dose of nortriptyline administered 2 hrs before carrageenan challenge measured after 4 hrs relative to control; type: functional, organism-based; parameters: dose 5 mg/kg
# Mus musculus [42] = assay: Anxiolytic activity in BALB/c mouse assessed as distance moved at equimolar oral dose relative to 15 mg/kg nortriptyline after 90 mins by open-field test (RVb= 8485+/-610 cm); type: functional
# Mus musculus [43] = assay: Anxiolytic activity in BALB/c mouse assessed as immobility at equimolar oral dose relative to 1 mg/kg nortriptyline after 90 mins by open-field test (RVb= 458.4+/-41 s); type: functional
structure (smiles),measurement,setting,value
CNCCC(Oc1ccc(C(F)(F)F)cc1)c1ccccc1 (stereo not given),Activity,Mus musculus [1],Active
NCC1(CC(=O)O)CCCCC1,Activity,Mus musculus [2],Active
same,Activity,Rattus norvegicus [3],Active
same,Activity,Rattus norvegicus [4],inactive
same,Activity,Mus musculus [5],Active
same,Activity,Rattus norvegicus [6],inactive
CN(CCC=C1c2ccccc2CCc2ccccc21)C(=O)CCCN.Cl [BL-1021],inhibition,Rattus norvegicus [7],6%
same,Activity,Mus musculus [8],467.9 s
same,Activity,Mus musculus [2],Active
same,Activity,Mus musculus [9],8053 cm
same,Activity,Mus musculus [10],6.72 cm/s
same,Activity,Mus musculus [11],Active
same,Activity,Mus musculus [12],Active
same,Activity,Mus musculus [13],Active
same,Activity,Mus musculus [14],8157 cm
same,Activity,Mus musculus [15],Active
same,Activity,Mus musculus [16],Active
same,Activity,Mus musculus [17],6.18 cm/s
same,Activity,Mus musculus [18],6.85 cm/s
same,Activity,Rattus norvegicus [19],inactive
same,Activity,Mus musculus [20],Active
same,Activity,Mus musculus [21],Active
same,Activity,Rattus norvegicus [22],Active
same,Activity,Mus musculus [1],Active
same,inhibition,Rattus norvegicus [23],11%
same,Activity,Mus musculus [24],Active
same,Activity,Mus musculus [25],Active
same,Activity,Mus musculus [26],Active
same,Activity,Mus musculus [27],Active
same,Activity,Mus musculus [28],Active
same,Activity,Mus musculus [29],Active
same,Activity,Rattus norvegicus [30],inactive
same,Activity,Mus musculus [31],Active
same,Activity,Mus musculus [32],Active
same,Activity,Mus musculus [33],Active
same,Activity,Mus musculus [34],572.8 s
same,Activity,Rattus norvegicus [35],inactive
same,Activity,Mus musculus [36],Active
same,Activity,Mus musculus [37],Active
same,Activity,Mus musculus [38],Active
same,Activity,Mus musculus [39],Active
same,Activity,Mus musculus [40],Active
same,Activity,Rattus norvegicus [41],inactive
same,Activity,Mus musculus [42],7413 cm
same,Activity,Mus musculus [43],447.2 s
